Calls of active or inactive are those of the source. No cut-off for these calls is given here.
What was measured:
Cocaine esterase = biological target: T1, Cocaine esterase (Homo sapiens, UniProt O00748); assay: Inhibition of human CE2 using fluorescein diacetate as substrate preincubated for 10 mins followed by substrate addition and measured after 10 mins by luminescence assay
T1 sequence (O00748 whole entry): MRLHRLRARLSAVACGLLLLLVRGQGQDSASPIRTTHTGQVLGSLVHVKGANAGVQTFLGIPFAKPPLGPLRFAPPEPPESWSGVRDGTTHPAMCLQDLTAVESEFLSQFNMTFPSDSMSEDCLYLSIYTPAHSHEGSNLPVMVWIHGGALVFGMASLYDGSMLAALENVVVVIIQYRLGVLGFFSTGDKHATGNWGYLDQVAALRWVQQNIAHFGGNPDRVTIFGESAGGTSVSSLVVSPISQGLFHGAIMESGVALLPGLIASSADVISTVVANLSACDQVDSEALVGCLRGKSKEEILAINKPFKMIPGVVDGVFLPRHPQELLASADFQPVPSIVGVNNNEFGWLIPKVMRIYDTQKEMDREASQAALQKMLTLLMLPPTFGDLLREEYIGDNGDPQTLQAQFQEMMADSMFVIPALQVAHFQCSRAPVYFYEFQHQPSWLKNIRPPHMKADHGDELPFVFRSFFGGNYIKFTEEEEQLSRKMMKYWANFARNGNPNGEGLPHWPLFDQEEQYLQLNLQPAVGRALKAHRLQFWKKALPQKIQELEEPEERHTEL

[1] = biological target: T2, Tyrosine-protein phosphatase non-receptor type 1 (Homo sapiens) (UniProt P18031); assay: Inhibition of recombinant human GST-tagged PTP1B using para-nitrophenyl phosphate as substrate incubated for 10 mins by spectrophotometric method
T2 sequence (whole entry): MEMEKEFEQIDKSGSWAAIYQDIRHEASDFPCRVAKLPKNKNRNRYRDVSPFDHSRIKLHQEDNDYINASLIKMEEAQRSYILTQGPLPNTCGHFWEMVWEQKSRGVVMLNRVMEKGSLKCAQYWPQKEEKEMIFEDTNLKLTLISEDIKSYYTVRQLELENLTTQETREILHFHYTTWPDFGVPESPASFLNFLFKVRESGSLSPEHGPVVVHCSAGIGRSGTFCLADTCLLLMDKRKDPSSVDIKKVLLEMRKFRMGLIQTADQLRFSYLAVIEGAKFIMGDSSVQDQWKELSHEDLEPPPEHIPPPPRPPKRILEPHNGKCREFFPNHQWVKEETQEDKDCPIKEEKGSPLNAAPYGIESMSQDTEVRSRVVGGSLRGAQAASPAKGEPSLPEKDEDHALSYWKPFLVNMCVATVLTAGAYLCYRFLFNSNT

HepG2 = assay: Cytoprotection activity in human HepG2 cells assessed as reduction in acetaminophen-induced cell injury after 48 hrs by MTT assay; assay type: functional, cell-based
Peritoneal macrophage = assay: Antiinflammatory activity in C57BL/6J mouse Peritoneal macrophages assessed as reduction in LPS-induced TNFalpha secretion after 24 hrs; assay type: functional, cell-based
A2780 = assay: Cytotoxicity against human A2780 cells assessed as reduction in cell viability after 24 hrs by MTT assay; assay type: functional, cell-based
HCT-8 = assay: Cytotoxicity against human HCT8 cells assessed as reduction in cell viability after 24 hrs by MTT assay; assay type: functional, cell-based
Bel-7402 = assay: Cytotoxicity against human Bel7402 cells assessed as reduction in cell viability after 24 hrs by MTT assay; assay type: functional, cell-based
BGC-823 = assay: Cytotoxicity against human BGC823 cells assessed as reduction in cell viability after 24 hrs by MTT assay; assay type: functional, cell-based
A549 = assay: Cytotoxicity against human A549 cells assessed as reduction in cell viability after 24 hrs by MTT assay; assay type: functional, cell-based
Staphylococcus aureus = assay: Antimicrobial activity against Staphylococcus aureus ATCC 25923 assessed as reduction in microbial growth after 24 hrs by CLSI based broth microdilution method; assay type: functional, organism-based
[2] = system: Staphylococcus epidermidis; assay: Antimicrobial activity against Staphylococcus epidermidis ATCC 12228 assessed as reduction in microbial growth after 24 hrs by CLSI based broth microdilution method; assay type: functional, organism-based
Escherichia coli = assay: Antimicrobial activity against Escherichia coli ATCC 25922 assessed as reduction in microbial growth after 24 hrs by CLSI based broth microdilution method; assay type: functional, organism-based
[3] = system: Mycolicibacterium smegmatis; assay: Antimicrobial activity against Mycobacterium smegmatis MC2155 […] assessed as reduction in microbial growth after 24 hrs by CLSI based broth microdilution method; assay type: functional, organism-based
Liver carboxylesterase 1 = biological target: T3, Liver carboxylesterase 1 (Homo sapiens, UniProt P23141); assay: Inhibition of human CE1 using D-luciferin methyl ester as substrate preincubated for 10 mins followed by substrate addition and measured after 10 mins by luminescence assay
T3 sequence (P23141 whole entry): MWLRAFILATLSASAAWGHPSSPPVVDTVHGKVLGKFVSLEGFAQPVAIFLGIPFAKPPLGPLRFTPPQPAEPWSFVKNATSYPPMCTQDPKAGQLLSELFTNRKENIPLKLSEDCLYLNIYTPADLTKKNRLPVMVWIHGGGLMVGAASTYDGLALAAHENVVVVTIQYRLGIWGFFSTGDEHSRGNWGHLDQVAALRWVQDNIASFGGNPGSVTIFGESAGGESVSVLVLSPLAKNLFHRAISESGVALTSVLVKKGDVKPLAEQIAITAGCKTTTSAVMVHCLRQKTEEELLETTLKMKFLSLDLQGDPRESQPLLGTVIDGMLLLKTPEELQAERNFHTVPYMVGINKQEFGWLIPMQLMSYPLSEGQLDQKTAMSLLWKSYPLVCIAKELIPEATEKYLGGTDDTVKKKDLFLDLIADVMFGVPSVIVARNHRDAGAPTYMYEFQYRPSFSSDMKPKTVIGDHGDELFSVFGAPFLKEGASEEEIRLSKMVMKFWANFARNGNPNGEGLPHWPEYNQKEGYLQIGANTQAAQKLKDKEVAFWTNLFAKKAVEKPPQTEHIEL

Homo sapiens = organism: Homo sapiens; assay: Selectivity ratio of IC50 for inhibition of human CE1 […]

Structure (SMILES) | IC50 (Cocaine esterase) [µM] | inhibition [1] | Activity (HepG2) | Activity (Peritoneal macrophage) | Activity (A2780) | Activity (HCT-8) | Activity (Bel-7402) | Activity (BGC-823) | Activity (A549) | Activity (Staphylococcus aureus) | Activity [2] | Activity (Escherichia coli) | Activity [3] | IC50 (Liver carboxylesterase 1) [µM] | Ratio IC50 (Homo sapiens)
COc1cc2ccnc([C@H](C)c3ccc(OC)c(OC)c3O)c2cc1OC | > 100 | inactive | inactive | inactive | inactive | inactive | inactive | inactive | inactive | inactive | inactive | inactive | inactive | – | –
COc1cc2ccnc([C@@]3(C)OC(=O)c4c3ccc(OC)c4OC)c2cc1OC | 2 | inactive | inactive | inactive | inactive | inactive | inactive | inactive | inactive | inactive | inactive | inactive | inactive | > 100 | 49.3
COc1cc2c(cc1OC)[C@@]1(Oc3c(ccc(OC)c3OC)[C@]1(C)O)N(C=O)CC2 | – | inactive | inactive | inactive | inactive | inactive | inactive | inactive | inactive | inactive | inactive | inactive | inactive | > 100 | –
COc1cc2c(cc1OC)C([C@H](C)c1ccc(OC)c(OC)c1O)=NCC2 | 7.1 | inactive | inactive | inactive | inactive | inactive | inactive | inactive | inactive | inactive | inactive | inactive | inactive | > 100 | 14.1
COc1cc2ccnc([C@]3(C)OC(=O)c4c3ccc(OC)c4OC)c2cc1OC | 3.5 | inactive | inactive | inactive | inactive | inactive | inactive | inactive | inactive | inactive | inactive | inactive | inactive | > 100 | 28.9
O=[N+]([O-])c1ccc(OP(=O)(O)Oc2ccc([N+](=O)[O-])cc2)cc1 | – | – | – | – | – | – | – | – | – | – | – | – | – | 0.2 | –
COc1cc2c(cc1OC)C([C@@](C)(OC)c1ccc(OC)c(OC)c1O)=NCC2 | 9.3 | inactive | inactive | inactive | inactive | inactive | inactive | inactive | inactive | inactive | inactive | inactive | inactive | > 100 | 10.8
COc1cc2c(cc1OC)C([C@@H](C)c1ccc(OC)c(OC)c1O)=NCC2 | 8.7 | inactive | inactive | inactive | inactive | inactive | inactive | inactive | inactive | inactive | inactive | inactive | inactive | > 100 | 11.6
COc1cc2cc[n+]3c(c2cc1OC)[C@@](C)(O)c1ccc(OC)c(OC)c1C3 | 4.6 | inactive | inactive | inactive | inactive | inactive | inactive | inactive | inactive | inactive | inactive | inactive | inactive | > 100 | 21.8
COc1cc2cc[n+]3c(c2cc1OC)[C@](C)(O)c1ccc(OC)c(OC)c1C3 | 13.2 | inactive | inactive | inactive | inactive | inactive | inactive | inactive | inactive | inactive | inactive | inactive | inactive | > 100 | 7.6
COc1cc2c(cc1OC)[C@]1(Oc3c(ccc(OC)c3OC)[C@@]1(C)O)N(C=O)CC2 | – | inactive | inactive | inactive | inactive | inactive | inactive | inactive | inactive | inactive | inactive | inactive | inactive | > 100 | –
COc1cc2ccnc([C@@H](C)c3ccc(OC)c(OC)c3O)c2cc1OC | > 100 | inactive | inactive | inactive | inactive | inactive | inactive | inactive | inactive | inactive | inactive | inactive | inactive | – | –
COc1cc2c(cc1OC)C([C@](C)(OC)c1ccc(OC)c(OC)c1O)=NCC2 | 5 | inactive | inactive | inactive | inactive | inactive | inactive | inactive | inactive | inactive | inactive | inactive | inactive | > 100 | 20

From ChEMBL document CHEMBL4602685, “Yanhusanines A-F, Isoquinoline-Derived Alkaloid Enantiomers from Corydalis yanhusuo and Their Biological Activity” (J Nat Prod, 2020)
